Where “and” joins values, the source holds several entries; their conditions need not be identical. Identical values can stand only once. ± gives the expanded uncertainty stated by the source.
What was measured:
[1] = Crystal; for vapor or sublimation pressure: Calculated from knudsen effusion weight loss
[2] = Molar enthalpy of transition or fusion; conditions: Crystal; DSC

## O=Cc1ccc2c(c1)Cc1ccccc1-2 [9H-fluorene-2-carbaldehyde]
[1]; 335.16 K
  vapor or sublimation pressure: 0.000121 ± 2e-05 kPa and 0.00012 ± 2e-05 kPa
[1]; 337.16 K
  vapor or sublimation pressure: 0.000147 ± 2.1e-05 kPa and 0.000149 ± 2.1e-05 kPa and 0.000144 ± 2.1e-05 kPa
[1]; 339.09 K
  vapor or sublimation pressure: 0.000186 ± 2.1e-05 kPa and 0.000185 ± 2.1e-05 kPa
[1]; 341.11 K
  vapor or sublimation pressure: 0.000231 ± 2.2e-05 kPa and 0.000233 ± 2.2e-05 kPa
[1]; 341.16 K
  vapor or sublimation pressure: 0.000227 ± 2.2e-05 kPa
[1]; 343.08 K
  vapor or sublimation pressure: 0.000288 ± 2.2e-05 kPa and 0.000289 ± 2.2e-05 kPa
[1]; 343.14 K
  vapor or sublimation pressure: 0.000288 ± 2.2e-05 kPa
[1]; 345.09 K
  vapor or sublimation pressure: 0.00036 ± 2.4e-05 kPa and 0.000361 ± 2.4e-05 kPa and 0.000364 ± 2.4e-05 kPa
[1]; 347.16 K
  vapor or sublimation pressure: 0.000444 ± 2.5e-05 kPa and 0.000463 ± 2.6e-05 kPa
[1]; 349.11 K
  vapor or sublimation pressure: 0.000553 ± 2.8e-05 kPa and 0.00054 ± 2.8e-05 kPa and 0.000557 ± 2.8e-05 kPa
[1]; 351.09 K
  vapor or sublimation pressure: 0.000685 ± 3.1e-05 kPa and 0.000687 ± 3.2e-05 kPa and 0.000681 ± 3.1e-05 kPa
[1]; 353.1 K
  vapor or sublimation pressure: 0.000861 ± 3.6e-05 kPa and 0.000847 ± 3.6e-05 kPa and 0.000859 ± 3.6e-05 kPa
[1]; 355.09 K
  vapor or sublimation pressure: 0.001048 ± 8.2e-05 kPa and 0.001057 ± 8.3e-05 kPa and 0.001075 ± 8.5e-05 kPa
[1]; DTA
  Normal melting temperature: 84.5 ± 0.4 °C
[2]
  Molar enthalpy of transition or fusion: 5.26 ± 0.143 kcal/mol

Source: the NIST ThermoML archive (doi:10.1016/j.jct.2017.03.021)
